Like-named read-outs stand apart in the source and are kept apart here.
Legend:
[1] = test system: isolierten Aortenringen von Kaninchen; assay: Inhibition of angiotensin II-induced contraction of isolated rabbit aortic rings; type: cell-based; details: isolated rabbit aortic rings in vitro; effect at 3rd (submaximal) agonist concentration; read-out: IC50 gegen Kontraktionen, induziert durch AII
Experimental: Kaninchen beiderlei Geschlechts werden durch Nackenschlag betäubt und entblutet, oder fallweise mit Nembutal (ca. 60 - 80 mg/kg i.v.) narkotisiert und durch Öffnung des Thorax getötet. Die Thoraxaorta wird entnommen, von anhaftendem Bindegewebe befreit, in 1,5 mm breite Ringsegmente geteilt und einzeln unter einer Anfangsbelastung von ca. 3,5 g in 10 ml Organbäder mit auf 37°C temperierter, Carbogen-begaster Krebs-Henseleit-Nährlösung folgender Zusammensetzung: 119 mmol/l NaCl; 2,5 mmol/l CaCl₂ x 2 H₂O; 1,2 mmol/l KH₂PO₄; 10 mmol/l Glucose; 4,8 mmol/l KCl; 1,4 mmol/l MgSO₄ x 7 H₂O und 25 mmol/l NaHCO₃ verbracht.
Die Kontraktionen werden isometrisch durch Statham UC2-Zellen über Brückenverstärker (ifd Mülheim bzw. DSM Aalen) erfaßt und mittels A/D-Wandler (System 570, Keithley München) digitalisiert sowie ausgewertet. Die Durchführung von Agonistdosiswirkungskurven (DWK) erfolgt stündlich. Mit jeder DWK werden 3 bzw. 4 Einzelkonzentrationen im 4 min-Abstand in die Bäder appliziert. Nach Ende der DWK und darauffolgender Auswaschzyklen (16 mal jeweils ca. 5 sec/min mit der o.a. Nährlösung) schließt sich eine 28-minütige Ruhe- bzw. Inkubationsphase an, innerhalb derer die Kontraktionen in der Regel wieder den Ausgangswert erreichen.
Die Höhe der im Normalfall 3. […]

Angiotensin II-Rezeptor = molecular target: T1, Angiotensin II-Rezeptor (Bos taurus, UniProt P25104); assay: Angiotensin II receptor binding on membrane fractions of bovine adrenal cortex (3H-angiotensin II); set-up: species or system Rind; details: bovine adrenal cortex membranes, 3H-Angiotensin II 3-5 nM, 60 min, room temperature
T1 construct: an partiell gereinigten Membranfraktionen boviner NNR mit radioaktivem Angiotensin II; from tissue; host or cells: bovine adrenal cortex, partially purified membrane fractions
T1 sequence (P25104 1-359): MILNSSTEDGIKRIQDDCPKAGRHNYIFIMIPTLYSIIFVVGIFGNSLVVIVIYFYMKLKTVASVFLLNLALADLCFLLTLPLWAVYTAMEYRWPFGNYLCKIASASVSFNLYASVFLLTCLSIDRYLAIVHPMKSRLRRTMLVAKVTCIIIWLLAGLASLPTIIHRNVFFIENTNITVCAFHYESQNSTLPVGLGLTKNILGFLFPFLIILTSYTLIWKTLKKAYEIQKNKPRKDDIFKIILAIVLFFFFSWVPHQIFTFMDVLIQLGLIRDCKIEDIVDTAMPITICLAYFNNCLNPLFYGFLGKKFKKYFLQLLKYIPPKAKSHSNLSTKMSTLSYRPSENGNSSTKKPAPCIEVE
Experimental: Nebennierenrinden vom Rind (NNR), die frisch entnommen und sorgfältig von Mark von Kapsel befreit sind, werden in Sucrose-Lösung (0,32 M) mit Hilfe eines Ultra-Turrax (Janke & Kunkel, Staufen i.B.) zu grobem Membran-Homogenat zerkleinert und in zwei Zentrifugationsschritten zu Membranfraktionen partiell aufgereinigt. Die Untersuchungen zur Rezeptor-Bindung werden an partiell gereinigten Membranfraktionen boviner NNR mit radioaktivem Angiotensin II in einem Assay-Volumen von 0,25 ml durchgeführt, das im einzelnen die partiell gereinigten Membranen (50 - 80 µg), ³H-Angiotensin II (3-5 nM), Test-Pufferlösung (50 mM Tris, pH 7,2, 5 mM MgCl₂ sowie die zu untersuchenden Substanzen enthält. Nach einer Inkubationszeit von 60 min bei Raumtemperatur wird die nicht gebundene Radioaktivität der Proben mittels angefeuchteter Glasfaserfilter (Whatman GF/C) separiert und die gebundene Radioaktivität nach Waschung des Proteins mit eiskalter Pufferlösung (50 mM Tris/HCl, pH 7,4, 5% PEG 6000) in einem Szintillationscocktail […] gemessen. Die Analyse der Rohdaten erfolgte mit Computer-Programmen zu Ki- bzw. IC₅₀-Werten (Ki: für die verwendete Radioaktivität korrigierte IC₅₀-Werte; IC₅₀-Werte: Konzentration bei der die zu untersuchende Substanz eine 50%ige Hemmung der spezifischen Bindung des Radioliganden bewirkt).

Structure (SMILES)	Ki (Angiotensin II-Rezeptor)	other results
CCCCc1nc2cccc(C(=O)OC)c2n1Cc1ccc(S(=O)(=O)N2CCCC2C(=O)O)cc1Cl (stereo in doubt) [Beispiel 2, (S)-2-Butyl-1-[3-chlor-1-(N-2'-carboxy-pyrrolidinyl)-sulfonyl]-7-methoxycarbonyl-benz[d]imidazol]		IC50 [1]: 46 nM
CCCCc1nc2cccc(C(=O)O)c2n1Cc1ccc(S(=O)(=O)N2CCC[C@H]2C(=O)O)cc1Cl [Beispiel 3, (S)-2-Butyl-7-carboxy-1-[3-chlor-1-(N-2-carboxy-pyrrolidinyl)-sulfonyl]-benz[d]imidazol]	48 nM	
CCCCc1nc2cccc(C(=O)OC)c2n1Cc1ccc(S(=O)(=O)N2CCC[C@H]2C(=O)OC(C)(C)C)cc1F [Beispiel 4]		Ki (Angiotensin II-Rezeptor; read-out: Ki): 735 nM
CCCCc1nc2cccc(C(=O)O)c2n1Cc1ccc(S(=O)(=O)N2CCC[C@H]2C(=O)O)cc1Cl [Beispiel 7, (S)-2-Butyl-7-carboxy-1-[3-chlor-1-(N-2-carboxypyrrolidinyl)-sulfonyl]benz[d]imidazol Bis Kaliumsalz]	260 nM	
